Data taken from ChEMBL document CHEMBL5715954, “Silencing c-Myc translation as a therapeutic strategy through targeting PI3Kδ and CK1ε in hematological malignancies” (Blood, 2017).

Assays:
Design in all cases: scale not given: the % may be the effect or the level left
[1] = biological target: T1, 3-phosphoinositide-dependent protein kinase 1 (Homo sapiens) (UniProt O15530); assay: Inhibition of human PDK1 assessed as enzyme activity at 1 uM using KTFCGTPEYLAPEVRREPRILSEEEQEMFRDFDYIADWC as substrate preincubated for 20 mins followed by [gamma-33P]-ATP addition and measured after 120 mins by radiometric Hot-SpotSM Kinase assay relative to control
T1 sequence (whole entry): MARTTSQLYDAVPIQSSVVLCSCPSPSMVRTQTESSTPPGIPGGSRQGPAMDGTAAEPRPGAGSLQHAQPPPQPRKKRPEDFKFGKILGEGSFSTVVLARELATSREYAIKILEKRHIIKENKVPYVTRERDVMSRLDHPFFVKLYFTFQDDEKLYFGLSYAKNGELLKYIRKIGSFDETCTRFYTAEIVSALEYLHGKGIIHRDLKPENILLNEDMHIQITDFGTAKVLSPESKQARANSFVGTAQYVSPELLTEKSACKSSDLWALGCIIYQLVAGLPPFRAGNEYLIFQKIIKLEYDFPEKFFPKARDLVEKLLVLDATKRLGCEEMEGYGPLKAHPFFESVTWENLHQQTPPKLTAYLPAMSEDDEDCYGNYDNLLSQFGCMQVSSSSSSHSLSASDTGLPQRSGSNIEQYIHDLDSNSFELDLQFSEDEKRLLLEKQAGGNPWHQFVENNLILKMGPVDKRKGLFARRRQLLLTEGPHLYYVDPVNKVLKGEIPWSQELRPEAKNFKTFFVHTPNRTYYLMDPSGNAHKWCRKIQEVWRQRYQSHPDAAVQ

[2] = biological target: Dual specificity tyrosine-phosphorylation-regulated kinase 1B (Homo sapiens) (UniProt Q9Y463); assay: Inhibition of human DYRK1B assessed as enzyme activity at 1 uM using RRRFRPASPLRGPPK as substrate preincubated for 20 mins followed by [gamma-33P]-ATP addition and measured after 120 mins by radiometric Hot-SpotSM Kinase assay relative to control
[3] = biological target: Wee1-like protein kinase (Homo sapiens) (UniProt P30291); assay: Inhibition of human WEE1 assessed as enzyme activity at 1 uM using CDK1 (D146N)/cyclin B1 as substrate preincubated for 20 mins followed by [gamma-33P]-ATP addition and measured after 120 mins by radiometric Hot-SpotSM Kinase assay relative to control
[4] = biological target: Activin receptor type-1-like (Homo sapiens) (UniProt P37023); assay: Inhibition of human ALK1 assessed as enzyme activity at 1 uM using casein as substrate preincubated for 20 mins followed by [gamma-33P]-ATP addition and measured after 120 mins by radiometric Hot-SpotSM Kinase assay relative to control
[5] = biological target: Serine/threonine-protein kinase B-raf (Homo sapiens) (UniProt P15056); assay: Inhibition of human BRAF assessed as enzyme activity at 1 uM using MEK1 (K97R) as substrate preincubated for 20 mins followed by [gamma-33P]-ATP addition and measured after 120 mins by radiometric Hot-SpotSM Kinase assay relative to control
[6] = biological target: Mitogen-activated protein kinase kinase kinase kinase 1 (Homo sapiens) (UniProt Q92918); assay: Inhibition of human HPK1 assessed as enzyme activity at 1 uM using myelin basic protein as substrate preincubated for 20 mins followed by [gamma-33P]-ATP addition and measured after 120 mins by radiometric Hot-SpotSM Kinase assay relative to control
[7] = biological target: Citron Rho-interacting kinase (Homo sapiens) (UniProt O14578); assay: Inhibition of human STK21 assessed as enzyme activity at 1 uM using KKRPQRRYSNVF as substrate preincubated for 20 mins followed by [gamma-33P]-ATP addition and measured after 120 mins by radiometric Hot-SpotSM Kinase assay relative to control
[8] = biological target: T2, NUAK family SNF1-like kinase 2 (Homo sapiens) (UniProt Q9H093); assay: Inhibition of human SNARK assessed as enzyme activity at 1 uM using KKKVSRSGLYRSPSMPENLNRPR as substrate preincubated for 20 mins followed by [gamma-33P]-ATP addition and measured after 120 mins by radiometric Hot-SpotSM Kinase assay relative to control
T2 sequence (whole entry): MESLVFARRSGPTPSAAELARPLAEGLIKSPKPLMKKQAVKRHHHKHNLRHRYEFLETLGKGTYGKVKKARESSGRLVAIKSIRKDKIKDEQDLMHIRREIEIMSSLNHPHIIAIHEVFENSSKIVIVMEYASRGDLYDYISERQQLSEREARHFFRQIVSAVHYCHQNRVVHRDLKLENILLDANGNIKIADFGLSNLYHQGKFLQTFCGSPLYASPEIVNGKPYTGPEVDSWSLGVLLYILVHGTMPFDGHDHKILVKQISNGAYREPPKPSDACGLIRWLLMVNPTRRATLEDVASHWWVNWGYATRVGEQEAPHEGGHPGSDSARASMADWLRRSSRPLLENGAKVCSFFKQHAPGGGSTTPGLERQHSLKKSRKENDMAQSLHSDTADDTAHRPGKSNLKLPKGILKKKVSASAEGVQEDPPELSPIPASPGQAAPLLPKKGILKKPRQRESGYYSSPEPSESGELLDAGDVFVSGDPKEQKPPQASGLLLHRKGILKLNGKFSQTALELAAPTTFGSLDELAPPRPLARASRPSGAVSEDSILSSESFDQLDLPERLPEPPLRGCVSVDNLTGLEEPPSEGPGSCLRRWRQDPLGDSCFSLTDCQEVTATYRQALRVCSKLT

[9] = biological target: Ribosomal protein S6 kinase beta-1 (Homo sapiens) (UniProt P23443); assay: Inhibition of human p70S6K assessed as enzyme activity at 1 uM using KKRNRTLTK as substrate preincubated for 20 mins followed by [gamma-33P]-ATP addition and measured after 120 mins by radiometric Hot-SpotSM Kinase assay relative to control
[10] = biological target: Casein kinase I isoform gamma-2 (Homo sapiens) (UniProt P78368); assay: Inhibition of human CK1g2 assessed as enzyme activity at 1 uM using KRRRAL[pS]VASLPGL as substrate preincubated for 20 mins followed by [gamma-33P]-ATP addition and measured after 120 mins by radiometric Hot-SpotSM Kinase assay relative to control
Chain of Casein kinase I isoform gamma-2 (Homo sapiens) (P78368 whole entry, looked up, canonical isoform): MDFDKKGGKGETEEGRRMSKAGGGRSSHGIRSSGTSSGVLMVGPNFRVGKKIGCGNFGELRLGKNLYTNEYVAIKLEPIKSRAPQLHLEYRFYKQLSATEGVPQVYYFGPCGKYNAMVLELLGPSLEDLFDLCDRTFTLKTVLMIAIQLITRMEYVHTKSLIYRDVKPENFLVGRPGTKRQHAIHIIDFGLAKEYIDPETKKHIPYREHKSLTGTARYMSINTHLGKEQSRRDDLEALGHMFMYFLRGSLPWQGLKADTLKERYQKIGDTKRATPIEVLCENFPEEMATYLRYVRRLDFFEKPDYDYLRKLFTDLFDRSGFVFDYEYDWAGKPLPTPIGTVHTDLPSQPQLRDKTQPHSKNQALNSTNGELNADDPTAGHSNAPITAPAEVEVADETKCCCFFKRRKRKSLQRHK

Chain of Activin receptor type-1-like (Homo sapiens) (P37023 whole entry): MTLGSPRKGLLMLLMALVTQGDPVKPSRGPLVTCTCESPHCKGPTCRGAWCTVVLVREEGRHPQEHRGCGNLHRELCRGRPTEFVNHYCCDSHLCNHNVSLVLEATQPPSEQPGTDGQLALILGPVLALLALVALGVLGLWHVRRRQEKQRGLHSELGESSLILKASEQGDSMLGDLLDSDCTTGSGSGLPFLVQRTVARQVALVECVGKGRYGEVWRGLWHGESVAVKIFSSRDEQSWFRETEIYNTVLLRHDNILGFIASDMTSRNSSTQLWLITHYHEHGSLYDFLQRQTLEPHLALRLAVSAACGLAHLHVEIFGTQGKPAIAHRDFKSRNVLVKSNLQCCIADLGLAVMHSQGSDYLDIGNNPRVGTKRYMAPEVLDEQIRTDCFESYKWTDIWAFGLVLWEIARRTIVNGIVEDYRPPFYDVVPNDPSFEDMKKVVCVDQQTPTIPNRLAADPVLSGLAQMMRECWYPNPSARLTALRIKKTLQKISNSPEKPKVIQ
Chain of Citron Rho-interacting kinase (Homo sapiens) (O14578 whole entry): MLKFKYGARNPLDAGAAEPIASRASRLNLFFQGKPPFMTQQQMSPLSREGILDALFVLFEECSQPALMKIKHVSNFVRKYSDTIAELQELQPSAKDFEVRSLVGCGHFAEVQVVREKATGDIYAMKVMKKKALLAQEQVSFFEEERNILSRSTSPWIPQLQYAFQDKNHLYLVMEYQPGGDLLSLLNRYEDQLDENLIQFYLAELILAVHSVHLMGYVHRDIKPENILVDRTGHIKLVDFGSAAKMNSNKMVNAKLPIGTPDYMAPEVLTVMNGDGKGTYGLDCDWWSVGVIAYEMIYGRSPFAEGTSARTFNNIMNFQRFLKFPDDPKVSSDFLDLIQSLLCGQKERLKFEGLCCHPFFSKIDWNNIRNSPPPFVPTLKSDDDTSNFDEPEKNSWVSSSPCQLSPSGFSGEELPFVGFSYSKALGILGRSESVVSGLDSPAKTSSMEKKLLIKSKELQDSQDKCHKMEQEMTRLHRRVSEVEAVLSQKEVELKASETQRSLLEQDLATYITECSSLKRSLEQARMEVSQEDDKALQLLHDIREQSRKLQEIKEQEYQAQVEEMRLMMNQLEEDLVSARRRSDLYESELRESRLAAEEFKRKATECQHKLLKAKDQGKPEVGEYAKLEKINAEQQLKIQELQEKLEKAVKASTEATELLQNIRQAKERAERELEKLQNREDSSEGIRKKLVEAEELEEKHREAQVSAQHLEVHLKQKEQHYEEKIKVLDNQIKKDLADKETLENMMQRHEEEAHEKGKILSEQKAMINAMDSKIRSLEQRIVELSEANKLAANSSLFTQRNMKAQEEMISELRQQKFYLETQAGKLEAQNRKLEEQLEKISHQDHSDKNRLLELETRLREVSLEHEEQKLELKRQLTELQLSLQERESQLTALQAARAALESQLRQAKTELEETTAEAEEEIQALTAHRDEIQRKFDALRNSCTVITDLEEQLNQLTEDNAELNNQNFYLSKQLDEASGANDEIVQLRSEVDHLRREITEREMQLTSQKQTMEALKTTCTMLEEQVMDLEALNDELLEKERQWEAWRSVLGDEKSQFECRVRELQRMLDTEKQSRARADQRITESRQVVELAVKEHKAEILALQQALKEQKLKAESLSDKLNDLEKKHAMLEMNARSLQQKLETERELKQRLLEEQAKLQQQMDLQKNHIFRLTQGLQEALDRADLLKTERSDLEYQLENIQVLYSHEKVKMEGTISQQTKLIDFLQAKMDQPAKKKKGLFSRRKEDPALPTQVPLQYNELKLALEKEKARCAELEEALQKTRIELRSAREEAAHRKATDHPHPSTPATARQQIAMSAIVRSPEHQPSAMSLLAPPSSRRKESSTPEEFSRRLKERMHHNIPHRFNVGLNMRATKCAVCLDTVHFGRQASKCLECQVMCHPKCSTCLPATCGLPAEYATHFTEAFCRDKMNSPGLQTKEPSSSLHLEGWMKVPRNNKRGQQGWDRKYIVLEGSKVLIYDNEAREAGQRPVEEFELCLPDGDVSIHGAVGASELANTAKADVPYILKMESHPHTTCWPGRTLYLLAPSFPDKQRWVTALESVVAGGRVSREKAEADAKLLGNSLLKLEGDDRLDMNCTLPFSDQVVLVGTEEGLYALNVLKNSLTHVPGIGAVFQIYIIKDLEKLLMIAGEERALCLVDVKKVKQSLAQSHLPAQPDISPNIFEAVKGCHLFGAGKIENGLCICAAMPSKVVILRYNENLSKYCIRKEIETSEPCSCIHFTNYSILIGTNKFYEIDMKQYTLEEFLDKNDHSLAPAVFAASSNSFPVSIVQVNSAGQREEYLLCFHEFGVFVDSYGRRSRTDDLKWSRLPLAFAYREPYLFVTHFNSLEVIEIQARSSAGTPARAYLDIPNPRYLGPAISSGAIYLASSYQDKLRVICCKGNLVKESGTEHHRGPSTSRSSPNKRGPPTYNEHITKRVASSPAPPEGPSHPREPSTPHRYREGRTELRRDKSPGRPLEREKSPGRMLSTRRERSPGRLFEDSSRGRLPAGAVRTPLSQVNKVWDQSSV
Chain of Dual specificity tyrosine-phosphorylation-regulated kinase 1B (Homo sapiens) (Q9Y463 whole entry, looked up): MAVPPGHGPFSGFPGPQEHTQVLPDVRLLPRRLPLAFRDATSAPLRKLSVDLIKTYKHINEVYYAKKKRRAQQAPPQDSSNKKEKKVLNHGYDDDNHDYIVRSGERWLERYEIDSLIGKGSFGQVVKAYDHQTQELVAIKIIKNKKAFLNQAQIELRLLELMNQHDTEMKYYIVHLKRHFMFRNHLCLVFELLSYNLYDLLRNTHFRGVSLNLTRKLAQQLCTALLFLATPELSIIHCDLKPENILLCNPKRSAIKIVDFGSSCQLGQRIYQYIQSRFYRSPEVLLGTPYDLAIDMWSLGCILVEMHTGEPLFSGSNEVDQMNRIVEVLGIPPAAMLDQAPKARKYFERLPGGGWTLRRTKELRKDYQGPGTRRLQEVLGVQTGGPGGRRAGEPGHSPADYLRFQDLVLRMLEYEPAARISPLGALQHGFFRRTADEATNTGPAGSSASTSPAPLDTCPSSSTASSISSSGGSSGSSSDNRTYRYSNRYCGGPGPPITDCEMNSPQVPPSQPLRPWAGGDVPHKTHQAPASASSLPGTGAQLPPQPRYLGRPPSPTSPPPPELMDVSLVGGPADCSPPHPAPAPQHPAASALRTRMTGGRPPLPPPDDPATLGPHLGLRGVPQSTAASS
Chain of Mitogen-activated protein kinase kinase kinase kinase 1 (Homo sapiens) (Q92918 whole entry, looked up): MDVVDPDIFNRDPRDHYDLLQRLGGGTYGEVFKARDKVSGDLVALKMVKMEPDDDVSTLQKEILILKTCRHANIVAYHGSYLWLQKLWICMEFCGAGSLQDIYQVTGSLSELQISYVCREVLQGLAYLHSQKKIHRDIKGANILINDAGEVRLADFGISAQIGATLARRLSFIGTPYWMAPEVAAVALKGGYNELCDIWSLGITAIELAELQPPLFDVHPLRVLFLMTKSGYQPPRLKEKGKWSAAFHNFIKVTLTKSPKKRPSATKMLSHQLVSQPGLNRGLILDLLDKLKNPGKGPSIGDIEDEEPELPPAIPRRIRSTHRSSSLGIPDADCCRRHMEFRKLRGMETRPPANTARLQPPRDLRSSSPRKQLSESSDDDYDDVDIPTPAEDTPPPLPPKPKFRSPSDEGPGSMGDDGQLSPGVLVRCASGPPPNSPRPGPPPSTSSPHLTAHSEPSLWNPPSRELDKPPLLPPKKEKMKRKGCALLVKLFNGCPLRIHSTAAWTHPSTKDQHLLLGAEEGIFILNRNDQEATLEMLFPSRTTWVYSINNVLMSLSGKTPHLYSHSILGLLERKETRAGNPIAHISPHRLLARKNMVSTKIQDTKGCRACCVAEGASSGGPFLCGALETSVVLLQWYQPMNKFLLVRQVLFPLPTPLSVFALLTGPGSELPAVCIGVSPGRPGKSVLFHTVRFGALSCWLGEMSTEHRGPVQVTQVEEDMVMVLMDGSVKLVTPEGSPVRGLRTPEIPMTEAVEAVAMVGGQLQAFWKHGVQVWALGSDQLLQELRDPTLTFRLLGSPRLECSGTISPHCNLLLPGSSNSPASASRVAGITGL
Chain of Wee1-like protein kinase (Homo sapiens) (P30291 whole entry, looked up): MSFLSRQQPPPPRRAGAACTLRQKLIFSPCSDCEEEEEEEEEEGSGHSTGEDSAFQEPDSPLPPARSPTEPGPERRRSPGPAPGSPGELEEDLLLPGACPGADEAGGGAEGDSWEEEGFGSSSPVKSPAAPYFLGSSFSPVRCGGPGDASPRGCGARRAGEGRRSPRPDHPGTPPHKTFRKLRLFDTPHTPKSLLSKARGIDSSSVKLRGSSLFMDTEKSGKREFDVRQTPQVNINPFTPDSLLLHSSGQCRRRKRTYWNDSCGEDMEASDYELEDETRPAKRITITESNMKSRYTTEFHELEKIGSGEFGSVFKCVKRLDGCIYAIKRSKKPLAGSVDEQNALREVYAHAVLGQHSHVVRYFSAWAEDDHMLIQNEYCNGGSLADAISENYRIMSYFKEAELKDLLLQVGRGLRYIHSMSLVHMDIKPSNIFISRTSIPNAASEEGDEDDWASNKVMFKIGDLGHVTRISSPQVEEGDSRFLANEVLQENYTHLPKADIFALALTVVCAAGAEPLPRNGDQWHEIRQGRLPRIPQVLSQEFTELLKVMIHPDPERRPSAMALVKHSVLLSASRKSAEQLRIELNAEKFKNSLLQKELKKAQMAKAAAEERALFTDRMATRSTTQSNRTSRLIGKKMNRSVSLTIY

| SMILES | Activity [1] [%] | Activity [2] [%] | Activity [3] [%] | Activity [4] [%] | Activity [5] [%] | Activity [6] [%] | Activity [7] [%] | Activity [8] [%] | Activity [9] [%] | Activity [10] [%] |
| --- | --- | --- | --- | --- | --- | --- | --- | --- | --- | --- |
| C[C@H](Nc1ncnc2nc[nH]c12)c1cc2cccc(Cl)c2c(=O)n1-c1ccccc1 | 94.6 | 99.8 | 87.3 | 96.4 | 85.9 | 104 | 93.5 | 93.2 | 97.2 | 98.5 |
| CC[C@H](Nc1ncnc2[nH]cnc12)c1nc2cccc(F)c2c(=O)n1-c1ccccc1 | 94.6 | 99.2 | 96.7 | 96.6 | 87.6 | 98 | 101 | 93.2 | 96.5 | 99.7 |
| CC(C)Oc1ccc(-c2nn([C@@H](C)c3oc4ccc(F)cc4c(=O)c3-c3cccc(F)c3)c3ncnc(N)c23)cc1F [UMBRALISIB] | 92.8 | 96.2 | 106 | 104 | 92.2 | 105 | 113 | 95.9 | 97.9 | 104 |
